Data taken from the NIST ThermoML archive (doi:10.1021/acs.jced.8b00372).
Numbers after ± are expanded uncertainties.

Details: 313.15 K, Ring tensiometer

surface tension liquid-gas: 67.2 ± 2.8 mN/m
SMILES: O [water]
